≈ marks a conversion by molar mass, not a printed value.

The nature of data set [1]: Aqueous solubility test. The settings on record: for solubility: buffer solution, aqueous buffer, thermodynamic from solid, rt, buffer pH 7.4, stirred 48 hours or less, HPLC. Format: physicochemical. Here is the method: The pH of the mixtures was held constant during the study. Excess amounts or a known amount of each component are added to 1 or 0.5 ml of buffer solution and the mixtures were stirred at rt for 48 hours or less, filtered (0.45 μm Millipore) and analyzed by HPLC.

Data set [2] concerns the target T1, recombinant human 17β-HSD2 (Homo sapiens, UniProt P37059).
T1 construct: made in house; host or cells: Sd9 (Sf9) insect cells, baculovirus (Bac to Bac Expression System)
T1 sequence (P37059 1-387): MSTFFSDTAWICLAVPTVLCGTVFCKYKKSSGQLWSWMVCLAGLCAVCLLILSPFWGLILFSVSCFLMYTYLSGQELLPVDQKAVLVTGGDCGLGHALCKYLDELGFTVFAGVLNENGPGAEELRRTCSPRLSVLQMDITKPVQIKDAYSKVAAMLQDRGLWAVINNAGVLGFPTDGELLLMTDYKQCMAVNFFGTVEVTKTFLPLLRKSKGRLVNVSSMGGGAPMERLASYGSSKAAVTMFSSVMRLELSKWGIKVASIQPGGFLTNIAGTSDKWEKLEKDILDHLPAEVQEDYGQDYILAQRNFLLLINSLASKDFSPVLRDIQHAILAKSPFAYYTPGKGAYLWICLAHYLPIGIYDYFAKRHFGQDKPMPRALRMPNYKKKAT
Kind of data set: Inhibition of recombinant human 17β-HSD2 (conversion of 3H-estradiol to estrone, HPLC). Format: biochemical. As to conditions: inhibitor 1 μM; 50 nM estradiol, 1 mM NADH, 30 min RT. Here is the method: 17β-HSD2 production and isolation: Similarly to 17β-HSD1 the Recombinant baculovirus was generated by the “Bac to Bac Expression System” (Invitrogen). Recombinant bacmid was transfected to Sd9 insect cells using “Cellfectin Reagent” (Invitrogen). 60 h later cells were harvested and supernatant were fractionated by the following protocol: • cells were dissolved into 40 ml of A-buffer (40 mM TRIS, pH8.0, 20% glycerol, 20 μM NAD, 0.4 mM PMSF, 150 mM NaCl, 0.5% dodecyl-β-maltoside+protease inhibitor cocktail) • cells were sonicated • lysate was incubated on ice for 15 min • lysate was centrifuged 5000 rpm 15 min, +4° C. • centrifugation of the supernatant 180 000 g 30 min, +4° C. • pellet was dissolved into 8 ml of A-buffer • not resuspended material was removed by centrifugation 5000 rpm 15 min, +4° C. • the clear supernatant was divided into 100 μl aliquots and were stored frozen until determination of enzymatic activity.
The amount of 17β-HSD2 was analysed by immunoblotting and total protein concentration of each extract batch was determined.
Assay—Inhibition of recombinant human 17β-HSD2: Protein homogenate (4 μg/ml) was incubated in 20 mM KH2PO4 pH 8.5 with 50 nM estradiol (including 800 000 cpm/ml of ^3H-estradiol) and 1 mM […] for 30 min at RT, in the presence of the potential inhibitor at concentrations 1 μM or 0.1 μM. Inhibitor stock solutions were prepared in DMSO. Final concentration of DMSO was adjusted to 1% in all samples. The enzyme reaction was stopped by addition of 10% trichloroacetic acid (final concentration). Samples were centrifuged in a microtiter plate at 4000 rpm for 10 min. Supernatants were applied to reverse phase HPLC on a Waters Symmetry C18 column, equipped with a Waters Sentry Guard column. Isocratic HPLC runs were performed at RT at a flow rate ofl ml/min in acetonitrile:water 48:52 as running solvent. Radioactivity was monitored in the eluate by a Packard Flow Scintillation Analyzer. Total radioactivity for estrone and estradiol were determined in each sample and percent conversion of estradiol to estrone was calculated according to the following formula:
(§1) Percent inhibition was calculated flowingly: % inhibition=100−% conversion

Data set [3] addresses T2, recombinant human 17β-HSD1 (Homo sapiens, UniProt P14061).
T2 construct: made in house; host or cells: Sd9 (Sf9) insect cells, baculovirus (Bac to Bac Expression System)
T2 sequence (P14061 1-328): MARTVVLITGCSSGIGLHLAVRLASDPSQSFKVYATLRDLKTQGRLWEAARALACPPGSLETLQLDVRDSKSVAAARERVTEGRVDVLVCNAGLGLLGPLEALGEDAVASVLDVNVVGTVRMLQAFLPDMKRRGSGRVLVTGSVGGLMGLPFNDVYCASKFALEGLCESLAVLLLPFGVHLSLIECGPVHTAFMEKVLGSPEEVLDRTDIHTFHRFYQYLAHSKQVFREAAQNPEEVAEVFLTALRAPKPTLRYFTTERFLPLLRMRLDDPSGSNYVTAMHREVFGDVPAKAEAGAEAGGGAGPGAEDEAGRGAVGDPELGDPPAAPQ
Kind of data set: Inhibition of recombinant human 17β-HSD1 (conversion of 3H-estrone to estradiol, HPLC). It counts as biochemical. The settings on record: inhibitor 1 μM; 30 nM estrone, 1 mM NADPH, 30 min RT; read-out: 17β-HDS1 Inhibition % at 1 μM. As to the method:
17β-HSD1 production and isolation: Recombinant baculovirus was generated by the “Bac to Bac Expression System” (Invitrogen). Recombinant bacmid was transfected to Sd9 insect cells using “Cellfectin Reagent” (Invitrogen). 60 h later cells were harvested; the microsomal fraction was isolated as described by Puranen, T. J., Poutanen, M. H., Peltoketo, H. E., Vihko, P. T. and Vihko, R. K. (1994) Site-directed mutagenesis of the putative active site of human 17 β-hydroxysteroid dehydrogenase type 1. Biochem. J. 304: 289-293. Aliquots were stored frozen until determination of enzymatic activity.
Assay—Inhibition of recombinant human 17β-HSD1: Protein homogenate (0.1 μg/ml) was incubated in 20 mM KH2PO4 pH 7.4 with 30 nM estrone (including 800 000 cpm/ml of ^3H-estrone) and 1 mM NADPH for 30 min at RT, in the presence of the potential inhibitor at concentrations 1 μM or 0.1 μM. Inhibitor stock solutions were prepared in DMSO. Final concentration of DMSO was adjusted to 1% in all samples. The enzyme reaction was stopped by addition of 10% trichloroacetic acid (final concentration). Samples were centrifuged in a microtiter plate at 4000 rpm for 10 min. Supernatants were applied to reverse phase HPLC on a Waters Symmetry C18 column, equipped with a Waters Sentry Guard column. Isocratic HPLC runs were performed at RT at a flow rate of 1 ml/min in acetonitrile:water 48:52 as running solvent. Radioactivity was monitored in the eluate by a Packard Flow Scintillation Analyzer. Total radioactivity for estrone and estradiol were determined in each sample and percent conversion of estrone to estradiol was calculated according to the following formula:
as §1

Data set [4] can be described thus: Metabolic stability assay. It counts as in vitro ADME. As to conditions: human liver homogenate or microsomes. Here is the method:
The in vitro metabolic stability of the parent compounds was determined for exemplified compounds using human liver microsome and homogenate incubations. The incubation time points used with or without appropriate cofactors were 0 min and 60 min. Samples were collected at both time points and substrates were detected using LC/PDA/TOF-MS. In vitro metabolic stability (% remaining after 60 min in human liver homogenate or microsomes) of the compounds were calculated and the results are summarized in Table 4.

Data set [5] is described as follows: Determination of bioavailability: oral pharmacokinetics in Cynomolgus monkeys. It counts as in vivo. As to conditions: dose corresponding to 10 mg/kg of parent drug, 0.5% Carboxymethyl cellulose in water. As to the method: This study was performed in order to determine bioavailability of the present compounds in vivo. All animal experiments are performed in accordance with standards of ethical conduct and appropriate institutional animal care and use policies.
The pharmacokinetic studies of the compounds of the invention were assessed in Cynomolgus monkeys. The study compounds were administrated orally at a dose level corresponding to 10 mg/kg of parent drug. The common aqueous formulation, 0.5% Carboxymethyl cellulose in water, was used as a vehicle. The blood samples were obtained by direct venipuncture at pre-dose, and ten sequential time points after oral administration.
The quantitative bioanalysis of plasma samples were performed in accordance with the guidance Bioanalytical Method Validation (FDA, 2001) and the Guideline on Bioanalytical Method Validation (European Medicines Agency, 2011). Analytical method was optimized for suitable chromatographic (peak shape, retention) and mass spectrometric (ionization efficiency) properties.
A non-compartmental pharmacokinetic analysis was carried out with individual plasma concentration-time curves using WinNonlin® Professional Version 6.3 (Pharsight Corporation): […]
The area under the concentration-time curve from 0 to the last measurable concentration (AUCt) was calculated using the linear-log trapezoidal rule.

The term solubility denotes how much of the substance goes into solution per volume. A lower solubility goes with a poorly soluble substance. For `CO/N=C1\C[C@@H](CCC(=O)Nc2ncc(C)s2)C2C3CCc4cc(OC(=O)CN)ccc4C3CC[C@]12C` (stereo partly drawn) [Compound 3, Aminoacetic acid (13S,15R)-13-methyl-17[(E)-methoxyimino]-15-[2-(5-methyl-thiazol-2-ylcarbamoyl)-ethyl]-7,8,9,11,12,13,14,15,16,17-decahydro-6H-cyclopenta[a]phenanthren-3-yl ester], the solubility in data set [1] worked out at 2.37 µg/mL (≈ 4.52 µM). Moreover, in data set [1] (comment on Table 5, compared with parent VIV-1), the “aqueous solubility, in words” value is on record as “improved aqueous solubility”.

The inhibition is the drop in the measured response relative to a control, in per cent. As for `CO/N=C1\C[C@@H](CCC(=O)Nc2ncc(C)s2)C2C3CCc4cc(O)ccc4C3CC[C@]12C` (stereo partly drawn) [VIV-1, 3-{(13S,15R)-3-Hydroxy-17-[(E)-methoxyimino]-13-methyl-7,8,9,11,12,13,14,15,16,17-decahydro-6H-cyclopenta[a]phenanthren-15-yl}-N-(5-methylthiazol-2-yl)propanamide], the inhibition at 1 µM in data set [2] is 4%; in data set [3], 95%. Also, the solubility in data set [1] is under 0.52 µg/mL. Further, the “In vitro metabolic stability, % remaining after 60 min” value in data set [4] is listed as 73%.

In the case of `CO/N=C1\C[C@@H](CCC(=O)Nc2ncc(C)s2)C2C3CCc4cc(O)c(Cl)cc4C3CC[C@]12C` (stereo partly drawn) [VIV-12, 3-{(13S,15R)-2-Chloro-3-hydroxy-17-[(E)-methoxyimino]-13-methyl-7,8,9,11,12,13,14,15,16,17-decahydro-6H-cyclopenta[a]phenanthren-15-yl}-N-(5-methylthiazol-2-yl)propanamide], the inhibition at 1 µM is 3% in data set [2] and 95% in data set [3]. Moreover, in data set [4], the “In vitro metabolic stability, % remaining after 60 min” value worked out at 94%.

A word on the Cmax: it is the maximum level reached in the sampled fluid or tissue. Turning to “Phosphoric acid mono-{(13S,15R)-17-[(E)-methoxyimino]-13-methyl-15-[2-(5-methylthiazol-2-ylcarbamoyl)ethyl-7,8,9,11,12,13,14,15,16,17-decahydro-6H-cyclopenta[a]phenanthren-3-yl} ester disodium salt [Compound 1a]”, the Cmax in data set [5] was determined as 0.286 µg/mL. Further, in data set [5] (0 to last measurable concentration), the AUCt was found to be 3.17 µg·h/mL.

(Values after US10413557B2, “Prodrugs of 17.BETA.-HSD1-inhibitors” (FORENDO PHARMA LTD, priority 2014, dated 2019).)
